For experiment [1], the system named is thrombocyte aggregation in platelet-rich plasma taken from healthy volunteers. Description: Antithrombotic activity: inhibition of collagen-induced platelet aggregation (Born and Cross) in platelet-rich plasma. The format is cell-based. The conditions noted are these: Homo sapiens, 10 minutes preincubation at 37° C. How it is done:
2. Antithrombotic activity
The thrombocyte aggregation is measured using the method of Born and Cross (J. Physiol. 170: 397 (1964)) in platelet-rich plasma taken from healthy volunteers. To inhibit coagulation, the blood is mixed with 3.14% sodium citrate in a volume ratio of 1:10.
Collagen-induced aggregation
The pattern of the decrease in optical density of the platelet suspension is photometrically measured and recorded after the addition of the aggregation-triggering substance. The rate of aggregation is determined from the angle of inclination of the density curve. The point on the curve where there is maximum light transmittance is used to calculate the optical density.
The concentration of collagen used is as small as possible but sufficient to produce an irreversible reaction curve. Standard commercial collagen produced by Hormonchemie of Munich is used.
Before the addition of the collagen the plasma is incubated for 10 minutes with the substance at 37° C.
From the measurements obtained the EC50 is determined, which indicates the concentration giving a 50% change in the optical density in terms of the inhibition of aggregation.

In another experiment the target is human thrombocytes. Description: Inhibition of binding of ^3 H-BIBU 52 to human thrombocytes (table: Fibrinogen binding test). To be noted: ^3 H-BIBU 52 (5 nM), human thrombocytes in plasma, ambient temperature, 20 minutes. The method, then:
1. Inhibition of binding of ^3 H-BIBU 52 to human thrombocytes:
A suspension of human thrombocytes in plasma is incubated with ^3 H-BIBU 52 [=(3S,5S)-5-[(4'-amidino-4-biphenylyl)oxymethyl]-3-[(carboxyl)methyl]-2-pyrrolidinone[3-^3 H-4-biphenylyl]] (see DE-A-4,214,245), which replaces the ^125 I fibrinogen ligand known from the literature, and various concentrations of the substance to be tested. The free and bound ligand is separated by centrifuging and quantified by scintillation counting. The inhibition of ^3 H-BIBU 52 binding by the test substance is determined from the measurements obtained.
In order to do this, donor blood is taken from an anticubital vein and anticoagulated with trisodium citrate (final concentration 13 mM). The blood is centrifuged for 10 minutes at 170×g and the supernatant platelet-rich plasma (PRP) is removed. The remaining blood is vigorously centrifuged once more in order to obtain plasma. The PRP is diluted 1:10 with autologous plasma. 750 μl are incubated with 50 μl of physiological saline solution, 100 μl of test substance solution, 50 μl of ^14 C-sucrose (3,700 Bq) and 50 μl of ^3 H-BIBU 52 (final concentration: 5 nM) at ambient temperature for 20 minutes. In order to measure the non-specific binding, 5 μl of BIBU 52 (final concentration: 30 μM) are used instead of the test substance. The samples are centrifuged for 20 seconds at 10,000×g and the supernatant is poured off. 100 μl thereof are counted in order to determine the amount of free ligand. The pellet is dissolved in 500 μl of 0.2N NaOH, 450 μl are mixed with 2 ml of scintillator and 25 μl of 5N HCl and measured. The residual plasma remaining in the pellet is determined from the ^14 C-content and the bound ligand is determined from the ^3 H-measurement. After the non-specific binding has been deducted, the pellet activity is plotted against the concentration of the test substance and the concentration for a 50% inhibition of binding is determined.

This note sets out measurements from patent publication US5700801A, “Piperazine derivatives, pharmaceutical compositions containing these compounds, their use and processes for preparing them” (Karl Thomae, GmbH, priority 1994, dated 1997).

The structures appear in SMILES notation. Where a name gives a salt, the structure may show the parent alone. Bounds are passed on as bounds.

`O=C(O)CC[C@H]1CC[C@H](NC(=O)N2CCN(c3ccncc3)CC2)CC1` [5(6), 3-[4-trans-[4-(4-Pyridyl)-piperazin-1-yl]carbonylamino]cyclohexylpropionicacid hydrochloride]: a half-maximal response in experiment [1] (EC50) required 160 pM. The half-inhibitory concentration (IC50) (commonly the concentration needed to halve the response being measured) on human thrombocytes worked out at 250 pM.
The corresponding values for `COC(=O)[C@H]1CC[C@H](NC(=O)CCN2CCN(c3ccncc3)CC2)CC1` [Example 1, Methyl[4-trans-[3-[4-(4-pyridyl)-piperazin-1-yl]propionyl]-amino]cyclohexane carboxylate] are 3320 pM and greater than 100000 pM.
`O=C(O)CCN1CCC(NC(=O)N2CCN(c3ccncc3)CC2)CC1` [5(8), 3-[4-[4-(4-pyridyl)-piperazin-1-yl]carbonylamino]piperidinopropionic acid dihydrochloride]: a half-maximal effect in experiment [1] (EC50) was put at 600 pM. In addition, on human thrombocytes, the half-maximal inhibitory concentration (IC50) was 410 pM.
The corresponding values for `O=C(CC(=O)N1CCN(c2ccncc2)CC1)N[C@H]1CC[C@H](C(=O)O)CC1` [5(7), [4-trans-[4-(4-Pyridyl)-piperazin-1-yl]malonylamino]cyclohexylcarboxylic a cid hydrochloride] are 250 pM and 230 pM.
Take `O=C(CCN1CCN(c2ccncc2)CC1)N[C@H]1CC[C@H](C(=O)O)CC1` [Example 5, [4-trans-[3-[4-(4-Pyridyl)-piperazin-1-yl]propionyl]amino]-cyclohexane-carboxylic acid dihydrochloride]: in experiment [1], the EC50 (as a rule, the concentration needed to bring the measured effect to its halfway point) was 260 pM. For the same compound, the IC50 at human thrombocytes worked out at 210 pM.
The corresponding values for `O=C(O)CN1CCC(NC(=O)N2CCN(c3ccncc3)CC2)CC1` [5(9), [4-[4-(4-Pyridyl)-piperazin-1-yl]carbonylamino]piperidino-acetic acid] are 4400 pM and 430 pM.
